According to patent publication US20030153538A1, “Antitumor agent” (The Nisshin OilliO, Ltd., priority 2000, published 2003):
Read-outs that look alike come from different tables or passages of the source.

How the values were obtained:
B16 melanoma cells = assay: Test for malignant melanoma metastasis-inhibitory effect (lung metastasis after i.v. injection of B16 melanoma cells); format: in vivo, Whister female rats; conditions: rats; for RMI (rate of metastasis-inhibition): every other day, lung lesions on 15th day; for tumor cell-metastasis-inhibitory effect compared with the control group (in words): metastasis of cancer to lung, summary of Table 2
Experimental: The tumor cell-metastasis-inhibitory effect can be evaluated according to, for instance, the malignant melanoma metastasis-inhibitory test. More specifically, a suspension of B16 melanoma cells prepared in advance is intravenously injected into Whister female rats, cotton seed oil in which each test substance is dissolved in a predetermined concentration is intraperitoneally administered through injection or orally administered using a sonde, every second day starting from 2nd day after the intravenous injection of the suspension. In this connection, only cotton seed oil is administered to the control group of animals. The lungs are extracted from these animals on the 15th day after the injection of the B16 melanoma cells, the lungs are examined to determine the number of cancer lesions thus metastasized to thus calculate the rate of metastasis-inhibition. The tumor cell-metastasis-inhibitory effect of each test sample is evaluated on the basis of the resulting rate of metastasis-inhibition.
Tests for evaluating the malignant melanoma metastasis-inhibitory effect of each test sample were conducted according to the following method. Whister female rats (6-week-old; average body weight: 160 g) were preliminarily bred with a powdery feed preparation having a composition of AIN-93 for one week, these animals were divided into 5 groups (8 animals per group) so as to equalize the average body weight and then a previously prepared suspension of B16 melanoma cells was intravenously injected into each rat. Subsequently, these animals were bred with a powdery feed preparation having a composition of AIN-93 and cotton seed oil in which each of maslinic acid, erythrodiol, ursolic acid, uvaol, betulinic acid, betulin, compounds of Synthetic Examples 1 and 2, or oleanolic acid had been dissolved in a predetermined concentration was intraperitoneally injected into each animal or orally administered thereto using a sonde, every other day starting from the 2nd day after the injection of the B 16 melanoma cells. In this connection, only cotton seed oil was administered to the control group. On the 15th day after the injection of the B 16 melanoma cells, the lung of each animal was taken out, the lungs were examined to determine the number of cancer lesions thus metastasized and to thus calculate the rate of metastasis-inhibition in accordance with the following equation 2. The tumor cell-metastasis-inhibitory effect of each test sample could be evaluated on the basis of the resulting rate of metastasis-inhibition.
Rate of Metastasis-Inhibition (%)=[(D−C)/D]×100
Wherein C: Average number of cancer lesions metastasized observed in each animal group; and D: average number of cancer lesions metastasized observed in the control group.
Maslinic acid, erythrodiol, ursolic acid, uvaol, betulinic acid, betulin and physiologically acceptable salts thereof or derivatives thereof as well as cotton seed oil as the control were inspected for the rate of metastasis-inhibition (RMI) using the dose and administration methods specified in the following Table 2. In addition, the same procedures used above were repeated except for using oleanolic acid as a comparative sample to thus evaluate the rate of metastasis-inhibition (RMI) thereof.

B-16 melanoma cells = assay: Tests for tumor cell-proliferation-inhibitory effect and tumor cell-extinction (cell growth rate from viable cell count); format: cell-based; conditions: for activity at 5 ppm / activity at 10 ppm / activity at 15 ppm / activity at 20 ppm / activity at 25 ppm / activity at 50 ppm: Mus musculus, B16, 144 h; for tumor cell-killing effect (in words): at not less than 2 times the concentration required for proliferation inhibition; for tumor cell-proliferation-inhibitory effect (in words): summary of Table 1
Experimental: The tumor cell-proliferation-inhibitory effect and the tumor cell-killing or extinction effect can be determined according to the following method using B-16 melanoma cells.
More specifically, B-16 melanoma cells are inoculated in each well of a 6-well plate in a desired amount, followed by allowing the plate to stand at 37° C. and 5% carbon dioxide concentration to thus cultivate the cells, adding a sample solution to be tested (maslinic acid, erythrodiol, ursolic acid, uvaol, betulinic acid, betulin and physiologically acceptable salts thereof or derivatives thereof) to each well in an amount sufficient for achieving a desired concentration, on the next day or after 5 days from the initiation of the cultivation, determination of viable cell count on the 6th day after the initiation of the cultivation and calculation of the cell growth rate based on the viable cell count to thus evaluate the tumor cell-proliferation-inhibitory effect and the tumor cell-killing effect.
Tests for determining the tumor cell-proliferation-inhibitory effect and the tumor cell-killing effect were conducted according to the following method. To a 6-well plate, a culture medium was dispensed in an amount of 2 mL/well, B-16 melanoma cells were then inoculated in a desired quantity and thereafter the melanoma cells were cultivated by allowing the plate or the culture medium to stand at 37° C. and a carbon dioxide concentration of 5%. On the following day, a test sample solution prepared was added to and admixed with the content of each well to a desired concentration and the cultivation of the melanoma cells was continued. The culture medium was then exchanged on the 5th day from the initiation of the cultivation and the test sample solution was again added to each well. On the next day, the culture medium was removed to recover the cultivated melanoma cells, followed by washing the cells with PBS (phosphate buffered saline), determination of the viable cell count, and then calculation of the cell growth rate according to the following equation 1. The tumor cell-proliferation-inhibitory effect and the tumor cell-killing effect of each test sample were evaluated on the basis of the cell growth rate thus determined.
Cell Growth Rate (%)=(A/B)×100
As comparative examples, oleanolic acid, β-amyrin, α-amyrin and lupeol were added to the culture medium to thus determine and evaluate the cell growth rate by the same method used above.

[1] = 100 mg/body wt. (kg), Oral Adm.
[2] = 5 ppm, viable cell count vs control on 6th day, read-out: Cell Growth Rate
[3] = 15 ppm, viable cell count vs control on 6th day, read-out: Cell Growth Rate
[4] = 25 ppm, viable cell count vs control on 6th day, read-out: Cell Growth Rate
[5] = viable cell count vs control on 6th day
[6] = 5 ppm, viable cell count vs control on 6th day
[7] = 10 ppm, viable cell count vs control on 6th day
[8] = 15 ppm, viable cell count vs control on 6th day
[9] = 20 ppm, viable cell count vs control on 6th day
[10] = 25 ppm, viable cell count vs control on 6th day

| Compound | RMI (rate of metastasis-inhibition) (B16 melanoma cells; [1]) [%] | tumor cell-metastasis-inhibitory effect compared with the control group (in words) (B16 melanoma cells) | activity at 5 ppm (B-16 melanoma cells; [2]) [%] | activity at 15 ppm (B-16 melanoma cells; [3]) [%] | activity at 25 ppm (B-16 melanoma cells; [4]) [%] | activity at 50 ppm (B-16 melanoma cells; [5]) [%] | tumor cell-proliferation-inhibitory effect (in words) (B-16 melanoma cells) | Cell Growth Rate (B-16 melanoma cells; [6]) [%] | Cell Growth Rate (B-16 melanoma cells; [7]) [%] | Cell Growth Rate (B-16 melanoma cells; [8]) [%] | Cell Growth Rate (B-16 melanoma cells; [9]) [%] | Cell Growth Rate (B-16 melanoma cells; [10]) [%] | other results |
| --- | --- | --- | --- | --- | --- | --- | --- | --- | --- | --- | --- | --- | --- |
| C[C@H]1[C@H](C)CC[C@]2(C(=O)O)CC[C@]3(C)C(=CC[C@@H]4[C@@]5(C)CC[C@H](O)C(C)(C)[C@@H]5CC[C@]43C)[C@H]12 [Ursolic acid] | 79.5 | significantly (P<0.05) inhibit any metastasis of cancer to lung | 64 | 3 | 0 | 0 | quite strong tumor cell-proliferation-inhibitory effects |  |  |  |  |  | activity at 10 ppm (B-16 melanoma cells; 10 ppm, viable cell count vs control on 6th day, read-out: Cell Growth Rate): 40%; activity at 20 ppm (B-16 melanoma cells; 20 ppm, viable cell count vs control on 6th day, read-out: Cell Growth Rate): 0%; tumor cell-killing effect (in words) (B-16 melanoma cells): quite intensive tumor cell-killing effects |
| C[C@H]1[C@H](C)CC[C@]2(CO)CC[C@]3(C)C(=CC[C@@H]4[C@@]5(C)CC[C@H](O)C(C)(C)[C@@H]5CC[C@]43C)[C@H]12 [Uvaol] | 43.7 | significantly (P<0.05) inhibit any metastasis of cancer to lung | 80 | 69 | 49 | 30 | quite strong tumor cell-proliferation-inhibitory effects |  |  |  |  |  |  |
| CC(=O)O[C@@H]1C[C@]2(C)[C@H]3CC=C4[C@@H]5CC(C)(C)CC[C@]5(C(=O)O)CC[C@@]4(C)[C@]3(C)CC[C@H]2C(C)(C)[C@H]1OC(C)=O [Comp. Of Synthetic Ex. 2, 2,3-O-di-acetyl-maslinic acid] | 74.8 |  |  |  |  |  |  | 89 | 63 | 34 | 4 | 0 |  |
| CC1(C)CC[C@]2(CO)CC[C@]3(C)C(=CC[C@@H]4[C@@]5(C)CC[C@H](O)C(C)(C)[C@@H]5CC[C@]43C)[C@@H]2C1 [Erythrodiol] | 56.3 | significantly (P<0.05) inhibit any metastasis of cancer to lung | 73 | 69 | 53 | 43 | quite strong tumor cell-proliferation-inhibitory effects |  |  |  |  |  |  |
| CC1(C)CC[C@]2(C(=O)O)CC[C@]3(C)C(=CC[C@@H]4[C@@]5(C)C[C@@H](O)[C@H](O)C(C)(C)[C@@H]5CC[C@]43C)[C@@H]2C1 [maslinic acid] |  | significantly (P<0.05) inhibit any metastasis of cancer to lung |  |  |  |  | quite strong tumor cell-proliferation-inhibitory effects |  |  |  |  |  | tumor cell-killing effect (in words) (B-16 melanoma cells): quite intensive tumor cell-killing effects |
| CC1(C)CC[C@]2(C(=O)O)CC[C@]3(C)C(=CC[C@@H]4[C@@]5(C)C[C@@H](O)[C@H](O)C(C)(C)[C@@H]5CC[C@]43C)[C@@H]2C1 [Purified maslinic acid 1, maslinic acid] |  |  |  |  |  |  |  | 67 | 43 | 6 | 0 | 0 | RMI (rate of metastasis-inhibition) (B16 melanoma cells; 50 mg/body wt. (kg), Oral Adm.): 61.4% |
| CCOC(=O)[C@]12CCC(C)(C)C[C@H]1C1=CC[C@@H]3[C@@]4(C)C[C@@H](O)[C@H](O)C(C)(C)[C@@H]4CC[C@@]3(C)[C@]1(C)CC2 [Comp. Of Synthetic Ex. 1, maslinic acid ethyl ester] | 77.6 |  |  |  |  |  |  | 73 | 49 | 18 | 0 | 0 |  |
| CC1(C)CC[C@]2(C(=O)O)CC[C@]3(C)C(=CC[C@@H]4[C@@]5(C)C[C@@H](O)[C@H](O)C(C)(C)[C@@H]5CC[C@]43C)[C@@H]2C1 [Purified maslinic acid 2, maslinic acid] | 78.6 |  |  |  |  |  |  |  |  |  |  |  | RMI (rate of metastasis-inhibition) (B16 melanoma cells; 50 mg/body wt. (kg), I.P. Adm.): 67.3%; activity at 5 ppm (B-16 melanoma cells; read-out: Cell Growth Rate, 5 ppm, viable cell count vs control on 6th day): 75%; activity at 10 ppm (B-16 melanoma cells; read-out: Cell Growth Rate, 10 ppm, viable cell count vs control on 6th day): 47%; activity at 15 ppm (B-16 melanoma cells; read-out: Cell Growth Rate, 15 ppm, viable cell count vs control on 6th day): 11%; activity at 20 ppm (B-16 melanoma cells; read-out: Cell Growth Rate, 20 ppm, viable cell count vs control on 6th day): 0%; activity at 25 ppm (B-16 melanoma cells; read-out: Cell Growth Rate, 25 ppm, viable cell count vs control on 6th day): 0% |
